Measured values as given in patent publication US8809265B2, “Methods for treating HCV” (AbbVie Inc., priority 2011, dated 2014).

Assay: bioequivalence of solid formulations of Compound 2
Type: in vivo
Conditions: 250 mg in improved solid formulation (increased binder, e.g. copovidone) versus 400 mg in original formulation
From the text: Accordingly, in one aspect, the present technology features a method of treating HCV infection, comprising administering to a patient in need thereof an effective amount of a combination of two or more DAAs. […] The DAAs can be administered at the same or different dosing frequencies. The patient being treated can be a treatment naïve patient, a treatment experienced patient, including, but not limited to, a relapser, an interferon partial responder, or an interferon non-responder; or a patient unable to take interferon. The patient may be infected with, for example and without limitation, HCV genotype 1, such as HCV genotype 1a or HCV genotype 1b; or HCV genotype 2 or 3. The treatment according to this aspect of the technology may also be effective against other HCV genotypes. The DAAs can be administered around the same time or at different times, and can be co-formulated in a single formulation or formulated in different compositions. Each DAA can be selected from HCV protease inhibitors, HCV polymerase inhibitors, or HCV NS5A inhibitors. […]

- bioequivalence of formulations: bioequivalent
SMILES: COc1c(-c2ccc3cc(NS(C)(=O)=O)ccc3c2)cc(-n2ccc(=O)[nH]c2=O)cc1C(C)(C)C [Compound 2, N-(6-(3-tert-butyl-5-(2,4-dioxo-3,4-dihydropyrimidin-1(2H)-yl)-2-methoxyphenyl)naphthalen-2-yl)methanesulfonamide]
